A short description of data set [1]: Phase I interaction study Part 2 Arm 1: sulfasalazine. Type of data set: in vivo, human. To be noted: for AUC(0-inf) / Cmax / AUC(0-t): both sexes, 500 mg. The method, then:
The study included 3 periods as follow: • Screening: performed within 28 days prior to dosing on Day 1. • Treatment period: […] In Part 2 (Arm 1): For each dose of sulfasalazine administered, blood samples for PK analysis were collected at the following timepoints: pre-dose, 0.5, 1, 2, 3, 4, 5, 6, 8, 12, 18, 24, 36, 48, 60, 72 and 96 hours postdose. […] Arm 1 (sulfasalazine): 26 subjects were treated with the study drug. On the morning of Day 1, subjects received a single oral dose of sulfasalazine 500 mg after at least a 10-hour overnight fast. Subjects would remain fasted for approximately 4 hours after dosing. Following a 5-day washout period (Days 1-5) subjects received vadadustat 600 mg once daily beginning on Day 6 for 7 days (Days 6-12). […] On Day 9, subjects received their morning dose of vadadustat 600 mg along with a single oral dose of sulfasalazine 500 mg after at least a 10-hour overnight fast. Subjects would remain fasted for at least 4 hours after dosing. Subjects were discharged from the clinical research unit on the morning of Day 13.

A short description of data set [2]: Phase I interaction study Part 1: rosuvastatin. To be noted: for AUC(0-inf) / AUC(0-t) / Cmax: both sexes, human, plasma, oral; for AUC(0-inf): read-out: AUC0-inf, Geometric LSM; for AUC(0-t): read-out: AUC0-last, Geometric LSM; for Cmax: read-out: Cmax, Geometric LSM. Type of data set: in vivo, human. As to the method:
In Part 1, 34 subjects were treated with the study drug. On the morning of Day 1, subjects received a single oral dose of rosuvastatin 20 mg after at least a 10-hour overnight fast. Subjects would remain fasted for at least 4 hours after dosing. […] When administered alone, vadadustat would be administered in the morning at least 30 minutes prior to breakfast. On Day 10, subjects received their morning dose of vadadustat 600 mg along with a single oral dose of rosuvastatin 20 mg after at least a 10-hour overnight fast. Subjects would remain fasted for at least 4 hours after dosing. Subjects were discharged from the clinical research unit (CRU) on the morning of Day 15.

Data set [3] can be described thus: Phase I interaction study Part 3 Arm 2: simvastatin. Type of data set: in vivo, human. As to the method: Subjects would remain fasted for approximately 4 hours after dosing. […] Subjects would remain fasted for at least 4 hours after dosing. Subjects were discharged from the clinical research unit on the morning of Day 6.
Data set [4] is described as follows: Phase I interaction study Part 3 Arm 1: atorvastatin. Type of data set: in vivo, human. To be noted: for AUC0-∞, Ratio of geometric mean value Combined/alone / Cmax, Ratio of geometric mean value Combined/alone: Atorvastatin 40 mg, Compound 1 600 mg; for AUCtau, Geometric LSM Ratio (A + V/A) / Cmax, Geometric LSM Ratio (A + V/A): atorvastatin 40 mg QD, vadadustat 600 mg QD; for AUC / Cmax: both sexes, human, plasma, oral, 40 mg; for AUC: heading: AUCtau, Geometric LSM; for Cmax: read-out: Cmax, Geometric LSM. The source says: Subjects were discharged from the clinical research unit on the morning of Day 9.

Data set [5] can be described thus: Phase I interaction study Part 2 Arm 2: pravastatin. Type of data set: in vivo, human. The following applies: for Cmax / AUC(0-inf) / AUC(0-t): both sexes, human, plasma, oral; for AUC(0-inf): read-out: AUC0-inf, Geometric LSM; for AUC(0-t): read-out: AUC0-last, Geometric LSM. The method, then: The pharmacokinetic (pK) parameters and safety of said drugs administered alone and in combination with Compound 1 were characterized.
Arm 2 (pravastatin): 26 subjects were treated with the study drug. On the morning of Day 1, subjects received a single oral dose pravastatin 40 mg after at least a 10-hour overnight fast. Subjects would remain fasted for approximately 4 hours after dosing. Following a 2-day washout period (Days 1-2) subjects received vadadustat 600 mg once daily beginning on Day 3 for 4 days (Days 3-6). When administered alone, vadadustat would be administered in the morning at least 30 minutes prior to breakfast. On Day 6, subjects received their morning dose of vadadustat 600 mg along with a single oral dose of pravastatin 40 mg after at least a 10-hour overnight fast. Subjects would remain fasted for at least 4 hours after dosing. Subjects were discharged from the clinical research unit on the morning of Day 7.

The nature of data set [6]: Phase I ferrous sulfate tablet interaction study.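 On all read-outs here: crossover in fasted human subjects with four-day washout between periods, plasma glucuronide metabolite pharmacokinetics, ratios computed as metabolite over parent for AUC and Cmax.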 The following applies: for Metabolite Ratio AUC(0-t) / Metabolite Ratio Cmax: Metabolite/Parent; for AUC(0-t) / Cmax / Tmax: metabolite in plasma; for AUC(0-t) / Cmax: mean; for Tmax: median.
Protocol: Pharmacokinetics. […] The ratio of metabolite to parent was calculated for each glucuronide metabolite for AUC(0-t); and AUC(0-inf) and Cmax.
Comparative Bioavailability. […] Factors incorporated in the model included: Sequence, Subject (Sequence), Period, and Treatment.
Treatment of Subjects. […] All subjects are dosed on the same day for Day 1 of Confinement Period 1, and are crossed over to the alternate treatment and are dosed on the same day for Day 1 of Confinement Period 2. Both treatments are administered in a fasted state, and a four-day Washout Period separates each Confinement Period.
Setting [7] is: Rosuvastatin 20 mg, Compound 1 600 mg.
The mark [8] stands for this setting: Treatment R + V: rosuvastatin 20 mg + vadadustat 600 mg QD.
The mark [9] stands for this setting: Treatment R: rosuvastatin 20 mg alone.
[10] abbreviates: rosuvastatin 20 mg, vadadustat 600 mg QD.
The mark [11] stands for this setting: administered with Compound 1 compared to alone.
Where [12] appears, read: both sexes, human, in vivo, 40 mg.
Setting [13] is: Treatment P + V: pravastatin 40 mg + vadadustat 600 mg QD.
[14] abbreviates: Treatment P: pravastatin 40 mg alone.
The mark [15] stands for this setting: pravastatin 40 mg, vadadustat 600 mg QD.
The mark [16] stands for this setting: treatment Compound 1 450 mg alone.

We go through ten molecules from patent US20230263786A1, “MODULATION OF DRUG-DRUG INTERACTIONS OF VADADUSTAT” (Akebia Therapeutics, Inc., priority 2020, published 2023).

For the molecule `Nc1ccc(O)c(C(=O)O)c1` [Mesalamine, mesalamine], the “AUC0-last, Geometric LSM” value in data set [1] (Treatment S: sulfasalazine 500 mg alone) is 220 ng·h/mL. Also, in data set [1] (human, in vivo), the AUC(0-inf) stood at 247 ng·h/mL and the concentration peaked (Cmax) at 22 ng/mL.

On to `Nc1ccc(S(=O)(=O)Nc2ccccn2)cc1` [Sulfapyridine, sulfapyridine], for which, in data set [1] (human, in vivo), the AUC(0-inf) was 42800 ng·h/mL, the AUC(0-t) stood at 42400 ng·h/mL and the highest level (Cmax) was 2580 ng/mL.

Regarding `CC(C)c1nc(N(C)S(C)(=O)=O)nc(-c2ccc(F)cc2)c1/C=C/[C@@H](O)C[C@@H](O)CC(=O)O` [Rosuvastatin, rosuvastatin], in data set [2] (setting [7]), the “AUC0-∞, Ratio of geometric mean value Combined/alone” value is 246.86% and the “Cmax, Ratio of geometric mean value Combined/alone” value was 274.80%. Besides, in data set [2] (setting [8]), the AUC(0-inf) was 254 ng·h/mL, the AUC(0-t) was determined as 249 ng·h/mL and the Cmax was found to be 27.9 ng/mL. For the same molecule, in data set [2] (setting [9]), the AUC(0-inf) amounted to 103 ng·h/mL, the AUC(0-t) was found to be 98.4 ng·h/mL and the Cmax turned out to be 10.2 ng/mL. Also, in data set [2] (setting [10]), the “AUC0-inf, Geometric LSM Ratio (R + V/R)” value stood at 246.86%; the “AUC0-last, Geometric LSM Ratio (R + V/R)” value is listed as 252.86%; the “Cmax, Geometric LSM Ratio (R + V/R)” value worked out at 274.80%.

Take `CCC(C)(C)C(=O)O[C@H]1C[C@@H](C)C=C2C=C[C@H](C)[C@H](CC[C@@H]3C[C@@H](O)CC(=O)O3)[C@H]21` [Simvastatin, simvastatin, reference compound]: the “increase of total exposure” value in data set [3] (setting [11]) was “about 2 fold”.

With `CCC(C)(C)C(=O)O[C@H]1C[C@@H](C)C=C2C=C[C@H](C)[C@H](CC[C@@H](O)C[C@@H](O)CC(=O)O)[C@H]21` [β-hydroxysimvastatin acid, (3R,5R)-7-[(1S,2S,6R,8S,8aR)-8-(2,2-dimethylbutanoyloxy)-2,6-dimethyl-1,2,6,7,8,8a-hexahydronaphthalen-1-yl]-3,5-dihydroxyheptanoic acid], in data set [3] (setting [12]), the AUC(0-inf) stood at 20200 ng·h/mL, the AUC(0-t) came to 17300 ng·h/mL and the highest level (Cmax) was 1850 ng/mL.

`O=C(O)c1cc(/N=N/c2ccc(S(=O)(=O)Nc3ccccn3)cc2)ccc1O` [Sulfasalazine, sulfasalazine, reference compound]: in data set [1] (human, in vivo), the AUC(0-inf) was found to be 82700 ng·h/mL, the AUC(0-t) came to 82200 ng·h/mL and the Cmax is 9700 ng/mL. Besides, in data set [1] (both, human, in vivo), the “increase of systemic exposure” value is “up to 4.5 fold”.

Consider `CC(C)c1c(C(=O)Nc2ccc(O)cc2)c(-c2ccccc2)c(-c2ccc(F)cc2)n1CC[C@@H](O)C[C@@H](O)CC(=O)O` [p-hydroxy atorvastatin, (3R,5R)-7-[2-(4-fluorophenyl)-4-[(4-hydroxyphenyl)carbamoyl]-3-phenyl-5-propan-2-ylpyrrol-1-yl]-3,5-dihydroxyheptanoic acid], for which, in data set [4], the “AUC0-∞, Ratio of geometric mean value Combined/alone” value was determined as 167.57%; the “Cmax, Ratio of geometric mean value Combined/alone” value is 230.48%; the “AUCtau, Geometric LSM Ratio (A + V/A)” value is 175.60%; the “Cmax, Geometric LSM Ratio (A + V/A)” value is 230.48%. Further, in data set [4], the AUC stood at 8.92 ng·h/mL and the Cmax came to 0.62 ng/mL.

As to `CC[C@H](C)C(=O)O[C@H]1C[C@H](O)C=C2C=C[C@H](C)[C@H](CC[C@@H](O)C[C@@H](O)CC(=O)O)[C@H]21` [Pravastatin, pravastatin], the “change of systemic exposure” value in data set [5] (setting [11]) is listed as “unchanged”. Further, in data set [5] (setting [13]), the Cmax came to 44 ng/mL, the AUC(0-inf) was 137000 ng·h/mL and the AUC(0-t) worked out at 134000 ng·h/mL. Further, in data set [5] (setting [14]), the Cmax was 53.2 ng/mL, the AUC(0-inf) was found to be 134000 ng·h/mL and the AUC(0-t) turned out to be 130000 ng·h/mL. In data set [5] (setting [15]), the “AUC0-inf, Geometric LSM Ratio (P + V/P)” value is 102.03%; the “AUC0-last, Geometric LSM Ratio (P + V/P)” value came out at 102.98%; the “Cmax, Geometric LSM Ratio (P + V/P)” value was determined as 82.74%.

Consider `CC(C)c1c(C(=O)Nc2ccccc2O)c(-c2ccccc2)c(-c2ccc(F)cc2)n1CC[C@@H](O)C[C@@H](O)CC(=O)O` [o-hydroxy atorvastatin, (3R,5R)-7-[2-(4-fluorophenyl)-4-[(2-hydroxyphenyl)carbamoyl]-3-phenyl-5-propan-2-ylpyrrol-1-yl]-3,5-dihydroxyheptanoic acid], for which, in data set [4], the “AUC0-∞, Ratio of geometric mean value Combined/alone” value came to 112.01%; the “Cmax, Ratio of geometric mean value Combined/alone” value turned out to be 91.20%; the “AUCtau, Geometric LSM Ratio (A + V/A)” value is on record as 111.34%; the “Cmax, Geometric LSM Ratio (A + V/A)” value is 91.20%. In data set [4], the AUC was found to be 96 ng·h/mL and the Cmax is 15 ng/mL.

For `O=C(CNC(=O)c1ncc(-c2cccc(Cl)c2)cc1O)O[C@@H]1O[C@H](C(=O)O)[C@@H](O)[C@H](O)[C@H]1O` [Compound 1-acyl-glucuronide], in data set [6] (treatment Compound 1 + Iron), the “Metabolite Ratio AUC(0-t)” value is 0.000458, the “Metabolite Ratio Cmax” value worked out at 0.000909, the “AUC(0-t)” value was 86.4 ng·h/mL and the Cmax was found to be 32.2 ng/mL. In data set [6] (treatment Compound 1 + Iron), the Tmax is reported as 3.0 h. In data set [6] (treatment Compound 1 alone), the “Metabolite Ratio AUC(0-t)” value is recorded as 0.00543 and the “Metabolite Ratio Cmax” value amounted to 0.00112. For the same molecule, in data set [6] (setting [16]), the “AUC(0-t)” value turned out to be 208 ng·h/mL, the Cmax amounted to 82.6 ng/mL and the Tmax came out at 1.75 h.

One may read the Cmax as the maximum level reached in the sampled fluid or tissue. One may read the AUC as concentration integrated over time. High values mean more exposure, low ones less exposure. Usually Tmax stands for the time at which the peak concentration occurs.
